Test results as given in PubChem BioAssay AID1918935 (Molecular Pharmacology Branch, DTP, NCI, 2023).
Where “and” joins values, the source holds several entries; their conditions need not be identical. Equal values may be shown once.

Tested on: 324938-238-R-J1-PDC complex spheroid viability
Test: Anticancer human tumor 324938-238-R-J1-PDC patient-derived bladder carcinoma cell line growth inhibition
Conditions: for viability, T/C: stronger effect = lower value
Method in brief: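 Complex spheroids of tumor cells with HUVEC and human MSCs, exposed to iadademstat combined with other agents. Each agent tested in half-log steps from near clinical Cmax (else 10 microM top), DMSO ≤0.25%.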

[1] = curve of first compound, second compound 0.1 µM
[2] = curve of first compound, second compound 0.316 µM
[3] = curve of first compound, second compound 1 µM
[4] = curve of first compound, second compound 3.16 µM
[5] = curve of first compound, second compound 10 µM
[6] = second compound 0.1 µM, first compound 0.0316 µM
[7] = second compound 0.1 µM, first compound 0.1 µM
[8] = second compound 0.1 µM, first compound 0.316 µM
[9] = second compound 0.1 µM, first compound 1 µM
[10] = second compound 0.1 µM, first compound 3.16 µM
[11] = second compound 0.1 µM, first compound 10 µM
[12] = second compound 0.316 µM, first compound 0.0316 µM
[13] = second compound 0.316 µM, first compound 0.1 µM
[14] = second compound 0.316 µM, first compound 0.316 µM
[15] = second compound 0.316 µM, first compound 1 µM
[16] = second compound 0.316 µM, first compound 3.16 µM
[17] = second compound 0.316 µM, first compound 10 µM
[18] = second compound 1 µM, first compound 0.0316 µM
[19] = second compound 1 µM, first compound 0.1 µM
[20] = second compound 1 µM, first compound 0.316 µM
[21] = second compound 1 µM, first compound 1 µM
[22] = second compound 1 µM, first compound 3.16 µM
[23] = second compound 1 µM, first compound 10 µM
[24] = second compound 3.16 µM, first compound 0.0316 µM
[25] = second compound 3.16 µM, first compound 0.1 µM
[26] = second compound 3.16 µM, first compound 0.316 µM
[27] = second compound 3.16 µM, first compound 1 µM
[28] = second compound 3.16 µM, first compound 3.16 µM
[29] = second compound 3.16 µM, first compound 10 µM
[30] = second compound 10 µM, first compound 0.0316 µM
[31] = second compound 10 µM, first compound 0.1 µM
[32] = second compound 10 µM, first compound 0.316 µM
[33] = second compound 10 µM, first compound 1 µM
[34] = second compound 10 µM, first compound 3.16 µM
[35] = second compound 10 µM, first compound 10 µM
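Note: spheroids also contain HUVEC and human MSCs and agents combined with iadademstat; spheroids exposed to agents for 7 days before readout.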

| Structure (SMILES) | IC50 [1] [µM] | IC50 [2] [µM] | IC50 [3] [µM] | IC50 [4] [µM] | IC50 [5] [µM] | viability, T/C [6] [%] | viability, T/C [7] [%] | viability, T/C [8] [%] | viability, T/C [9] [%] | viability, T/C [12] [%] | viability, T/C [13] [%] | viability, T/C [14] [%] | viability, T/C [15] [%] | viability, T/C [18] [%] | viability, T/C [19] [%] | viability, T/C [20] [%] | viability, T/C [21] [%] | viability, T/C [24] [%] | viability, T/C [25] [%] | viability, T/C [26] [%] | further results |
| --- | --- | --- | --- | --- | --- | --- | --- | --- | --- | --- | --- | --- | --- | --- | --- | --- | --- | --- | --- | --- | --- |
| O=C(c1cc(Cc2n[nH]c(=O)c3ccccc23)ccc1F)N1CCN(C(=O)C2CC2)CC1 + NC1CC1c1ccc(-c2cccc(O)c2)cc1 | 2.15 | 1.98 | 0.917 | 1.5 | 1.22 | 89.8 | 80.6 | 72.4 | 61.4 | 87.8 | 78.5 | 77.1 | 62.7 | 74.2 | 74.2 | 64.4 | 48 | 68.2 | 74 | 77.7 | viability, T/C [10]: 43.3%; viability, T/C [11]: 33.9%; viability, T/C [16]: 40.4%; viability, T/C [17]: 36.3%; viability, T/C [22]: 40.3%; viability, T/C [23]: 34.1%; viability, T/C [27]: 56%; viability, T/C [28]: 41.3%; viability, T/C [29]: 36.2%; viability, T/C [30]: 73.1%; viability, T/C [31]: 66.7%; viability, T/C [32]: 66.3%; viability, T/C [33]: 49.9%; viability, T/C [34]: 43.8%; viability, T/C [35]: 38.2% |
| CC1COCCN1c1cc(-c2ccnn2C)c2ccnc(-c3ccn[nH]3)c2n1 (configuration not stated) + NC1CCC(NC2CC2c2ccccc2)CC1 | 0.026 | 0.0404 | 0.0363 | 0.0258 | 0.0216 | 49 | 31.5 | 17.3 | 13.4 | 52.5 | 31.2 | 17.4 | 15.2 | 51.8 | 31.2 | 18.7 | 14.8 | 49.7 | 31.8 | 19.9 | viability, T/C (second compound 0.1 µM, first compound 0.00316 µM): 88%; viability, T/C (second compound 0.1 µM, first compound 0.01 µM): 64.2%; viability, T/C (second compound 0.316 µM, first compound 0.00316 µM): 76.9%; viability, T/C (second compound 0.316 µM, first compound 0.01 µM): 80.9%; viability, T/C (second compound 1 µM, first compound 0.00316 µM): 80.8%; viability, T/C (second compound 1 µM, first compound 0.01 µM): 73.2%; viability, T/C (second compound 3.16 µM, first compound 0.00316 µM): 72.8%; viability, T/C (second compound 3.16 µM, first compound 0.01 µM): 59.6%; viability, T/C [27]: 15.5%; viability, T/C (second compound 10 µM, first compound 0.00316 µM): 72.3%; viability, T/C (second compound 10 µM, first compound 0.01 µM): 60.3%; viability, T/C [30]: 44.7%; viability, T/C [31]: 30.8%; viability, T/C [32]: 20.1%; viability, T/C [33]: 14.3% |
| CC1(C)CCC(CN2CCN(c3ccc(C(=O)NS(=O)(=O)c4ccc(NCC5CCOCC5)c([N+](=O)[O-])c4)c(Oc4cnc5[nH]ccc5c4)c3)CC2)=C(c2ccc(Cl)cc2)C1 + NC1CCC(NC2CC2c2ccccc2)CC1 | 5.12 | 5.64 | 4.25 | 4.62 | 4.48 | 75.7 | 71.4 | 72.2 | 71 | 74.2 | 75.5 | 79.7 | 71.2 | 75.2 | 78 | 68.7 | 66.1 | 68.3 | 68 | 68.8 | viability, T/C [10]: 65.2%; viability, T/C [11]: 29.1%; viability, T/C [16]: 69.7%; viability, T/C [17]: 30.9%; viability, T/C [22]: 60.6%; viability, T/C [23]: 26.7%; viability, T/C [27]: 70.8%; viability, T/C [28]: 61.7%; viability, T/C [29]: 24.8%; viability, T/C [30]: 71.7%; viability, T/C [31]: 64.3%; viability, T/C [32]: 64.7%; viability, T/C [33]: 70.4%; viability, T/C [34]: 59.5%; viability, T/C [35]: 26% |
| CC1(C)CCC(CN2CCN(c3ccc(C(=O)NS(=O)(=O)c4ccc(NCC5CCOCC5)c([N+](=O)[O-])c4)c(Oc4cnc5[nH]ccc5c4)c3)CC2)=C(c2ccc(Cl)cc2)C1 | – | – | – | – | – | – | – | – | – | – | – | – | – | – | – | – | – | – | – | – | viability, T/C (compound 0.0316 µM): 99% and 104%; viability, T/C (compound 0.1 µM): 102% and 108%; viability, T/C (compound 0.316 µM): 107% and 109%; viability, T/C (compound 1 µM): 103% and 90.5%; viability, T/C (compound 3.16 µM): 90.8% and 83%; viability, T/C (compound 10 µM): 28.4% and 20.4%; IC50 (curve of compound): 6.73 µM and 5.65 µM |
| CC1(C)CCC(CN2CCN(c3ccc(C(=O)NS(=O)(=O)c4ccc(NCC5CCOCC5)c([N+](=O)[O-])c4)c(Oc4cnc5[nH]ccc5c4)c3)CC2)=C(c2ccc(Cl)cc2)C1 + NC1CC1c1ccc(-c2cccc(O)c2)cc1 | 3.96 | 4.48 | 3.96 | 4.19 | 2.23 | 94.5 | 91.3 | 91.7 | 71 | 72 | 74.9 | 73.2 | 66.5 | 78.4 | 74.6 | 66.4 | 69.8 | 70.9 | 68.3 | 68.1 | viability, T/C [10]: 61.5%; viability, T/C [11]: 17.3%; viability, T/C [16]: 64.2%; viability, T/C [17]: 19.8%; viability, T/C [22]: 58.5%; viability, T/C [23]: 19.8%; viability, T/C [27]: 74.3%; viability, T/C [28]: 59.6%; viability, T/C [29]: 20.3%; viability, T/C [30]: 70.5%; viability, T/C [31]: 67.6%; viability, T/C [32]: 66.3%; viability, T/C [33]: 56.8%; viability, T/C [34]: 47.9%; viability, T/C [35]: 17.8% |
